In patent US9273095B2, “Antibiotic peptide and preparation method therefor and application therefor” (priority 2011, dated 2016):
In brackets after ≈: the same amount, converted by molar mass. Read-outs that look alike come from different tables or passages of the source. Non-standard residues stand in square brackets, D forms with d. Residues, ends and D or L forms follow the SMILES beside them.

Experiments:
Typhoid bacillus H901 = test: microbe, parasite or virus in culture; type: cell-based
Procedure, shortened: (§1)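 Two-fold agar dilution method on MH agar (0.03–128 μg/ml final), 10^4CFU/point, 18 hours at 35° C.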

Staphylococcus aureus = test: microbe, parasite or virus in culture; type: cell-based
Procedure, shortened: as §1

[1] = tested on: Staphylococcus epidermidis; test: microbe, parasite or virus in culture; type: cell-based
Procedure, shortened: as §1

Pseudomonas aeruginosa = test: microbe, parasite or virus in culture; type: cell-based; settings: Pseudomonas aeruginosa
Procedure, shortened: as §1

Shigella sonnei = test: microbe, parasite or virus in culture; type: cell-based; settings: Shigella sonnei strains 51592
Procedure, shortened: as §1

Shigella = test: microbe, parasite or virus in culture; type: cell-based
Procedure, shortened: as §1

Escherichia coli = test: microbe, parasite or virus in culture; type: cell-based; settings: Escherichia coli
Procedure, shortened: as §1

Shigella flexneri = test: microbe, parasite or virus in culture; type: cell-based
Procedure, shortened: as §1

[2] = RP-HPLC temperature profiling: hydrophobicity and self-association; type: physicochemical; settings: for tR(min) 5° C. / tR(min) 80° C.: RP-HPLC temperature profiling; for PA (min), association parameter: maximal normalized retention time difference within 5-80° C., self-association ability; for tR(min) Max: maximal retention time during temperature profiling 5-80° C.; for ΔtR(X-Peptide C)(min) 5° C.: retention time difference to control peptide C at 5° C.; for ΔtR(X-Peptide C)(min) 5° C. / ΔtR(X-Peptide C)(min) 80° C.: relative hydrophobicity; for ΔtR(X-Peptide C)(min) 80° C.: retention time difference to control peptide C at 80° C.; for Hydrophobicity tR5: retention time in RP-HPLC at pH 2, 5° C.; for Hydrophobicity tR80: retention time in RP-HPLC at pH 2, 80° C.
Description: Peptides are analyzed on an Agilent 1200 series liquid chromatograph (Little Falls, Del.). Runs are performed on a Zorbax 300 SB-C8 column (150×4.6 mm I.D.; 5 μm particle size, 300 Å pore size) from Agilent Technologies using linear AB gradient (1% acetonitrile/min) and a flow rate of 1 ml/min, where solvent A is 0.05% aqueous TFA, pH 2 and solvent B is 0.05% TFA in acetonitrile.
We further use temperature profiling during RP-HPLC to determine the self-association ability of various analogs of PL-13 (SEQ ID NO: 1) which would occur through interaction of the non-polar faces of these amphipathic peptides α-helices. We use 50% TFE aqueous acetonitrile and hydrophobic conditions in the reversed-phase column (hydrophobic stationary phase and the hydrophobic organic solvent in the mobile phase) since the hydrophobic environment of a reversed-phase column also could induce α-helical structure. Since its introduction, the technique of RP-HPLC temperature profiling has been applied on several types of molecules, including cyclic β-sheet peptides, monomeric α-helices and α-helices that dimerize, as well as α-helices that dimerize to form coiled-coils. Although peptides are eluted from a reversed-phase column mainly by an adsorption/desorption mechanism, even a peptide strongly bound to a hydrophobic stationary phase will partition between the matrix and the mobile phase when the acetonitrile content becomes high enough during gradient elution. In summary, the mechanism is based on four assumptions: (i) at low temperature, just as an amphipathic α-helical peptide is able to dimerize in aqueous solution (through its hydrophobic, non-polar face), it will dimerize in solution during partitioning in reversed-phase chromatography; (ii) at higher temperatures, the monomer-dimer equilibrium favors the monomer as the dimer is disrupted; (iii) at sufficiently high temperatures, only monomer is present in solution; and (iv) peptide is always bound in its monomeric helical form to the hydrophobic stationary phase, i.e., the dimer can only be present in solution and disruption of the dimer is required for rebinding to the RP-HPLC matrix.
([θ]222=−3,950). Since peptide C is a monomeric random coil peptide in both aqueous and hydrophobic media, its retention behavior over the temperature range 5-80° C. represents only general temperature effects on peptide retention behavior, i.e., a linear decrease in peptide retention time with increasing temperature due to greater solute diffusivity and enhanced mass transfer between the stationary and mobile phases at higher temperatures. Thus, after normalization to the retention times of peptide C, the retention behavior of the peptides only represents peptide self-association ability. Note that the higher the PA value, the greater the self-association ability. The order of peptide self-association ability of the three pairs of peptide enantiomers is identical to the order of peptide hydrophobicity. Apart from the decrease in retention time due to the general temperature effects noted above, destruction of the α-helix will also occur with increasing temperature, resulting in reduced retention times as the peptides become increasingly random coils.
The retention time data for the peptides is shown in Table 6 which records retention times at 5° C., the maximal retention times and retention times at 80° C. during the temperature profiling. Temperatures of 5-80° C. are the lower and upper temperature limits of temperature profiling in RP-HPLC, representing polymerization of the peptides at 5° C. and the monomerization of peptides at 80° C. due to denaturation of peptides by high temperature and dissociation of the polymers. The maximal retention times represent the threshold points at which peptides totally transform from polymeric to monomeric form. […]

candida krusei = test: microbe, parasite or virus in culture; type: cell-based
Description: • (1) Test strains: monilia albicans (candida albicans), candida glabrata, candida krusei, candida tropicalis, aspergillus fumigatus and flavous. (2) Quality control strains: candida krusei JLC30366 (ATCC6258). Antimicrobial peptides PL-13 (SEQ ID NO: 1) under test are supplied by Jiangsu ProteLight Pharmaceutical & Biotechnology Co., LTD. […] (1) The bacterial strains which preserved on PDA slant are respectively inoculated onto PDA plate and slant medium. Activation of bacterial strains is conducted at a humidity level of 60% and 25° C. (for aspergillus) or 37° C. (for candida). (2) 0.9% stroke-physiological saline solution comprising 0.5% Tween-80 is used to prepare bacterial suspension for experiment. Hemocytometer is utilized to adjust concentration of the bacterial suspension to 1-3×10^6 CFU/ml (0.5 McFarland units) to make stock solution in reserve at -20° C. During the sensitivity test, the RPMI-1640 liquid medium is diluted 1000 times to 1-3×10^3 CFU/ml. (3) The RPMI-1640 liquid is utilized as diluent to 10-fold dilute stock solution of peptides. […] The eleventh orifice is used as living control orifice, while the twelfth one as blank control. (4) The RPMI-1640 liquid is utilized as diluent to 10-fold dilute stock solution of FCZ and ICZ. […] Ditto for other operations.

[3] = 08-52(MRSA) Methicillin-resistant staphylococcus aureus

Row | Structure (SMILES) | MIC (Typhoid bacillus H901) | MIC (Staphylococcus aureus; [3]) | MIC (Shigella sonnei) | MIC (Shigella) | tR(min) 5° C. [2] | tR(min) 80° C. [2] | PA (min), association parameter [2] | tR(min) Max [2] | ΔtR(X-Peptide C)(min) 5° C. [2] | ΔtR(X-Peptide C)(min) 80° C. [2] | Hydrophobicity tR5 [2] | Hydrophobicity tR80 [2] | other results
1 | C[C@H]1COc2c(N3CCN(C)CC3)c(F)cc3c(=O)c(C(=O)O)cn1c23 [Levofloxacin, levofloxacin, reference compound] | < 0.02 µM | 76.9 µM (≈ 27.8 µg/mL) | 0.1 µM (≈ 0.0361 µg/mL) | < 0.02 µM |  |  |  |  |  |  |  |  | MIC (Staphylococcus aureus; 08-49(MSSA) Meticillin susceptible staphylococcus aureus): 0.3 µM (≈ 0.108 µg/mL); MIC (Staphylococcus aureus; Staphylococcus aureus ATCC25923): 0.3 µM (≈ 0.108 µg/mL); MIC (Staphylococcus aureus; Staphylococcus aureus ATCC29213): 0.6 µM (≈ 0.217 µg/mL); MIC (Staphylococcus aureus; strain 15 (listed under Staphylococcus aureus)): 0.3 µM (≈ 0.108 µg/mL); MIC ([1]; 08-17 (MSSE) Meticillin susceptible staphylococcus epidermidis): 1.2 µM (≈ 0.434 µg/mL); MIC ([1]; 08-18 (MRSE) Methicillin-resistant staphylococcus epidermidis): 55.5 µM (≈ 20.1 µg/mL); MIC ([1]; ATCC 12228 / MRSE, (MRSE) Methicillin-resistant Staphylococcus epidermidis ATCC12228): 0.3 µM (≈ 0.108 µg/mL); MIC (Pseudomonas aeruginosa; Pseudomonas aeruginosa TCC27853): 1.2 µM (≈ 0.434 µg/mL); MIC (Pseudomonas aeruginosa; strain 17 (listed under Pseudomonas aeruginosa)): 0.7 µM (≈ 0.253 µg/mL); MIC (Escherichia coli; 08-5 (ESBLs) Extended Spectyumβ-lactamase): 76.9 µM (≈ 27.8 µg/mL); MIC (Escherichia coli; 272(TEM-88)): < 0.7 µM; MIC (Escherichia coli; 274 (TEM-15)): 0.2 µM (≈ 0.0723 µg/mL); MIC (Escherichia coli; 276 (TEM-52)): < 0.2 µM; MIC (Escherichia coli; ATCC25922, Escherichia coli ATCC 25922): 0.14 µM (≈ 0.0506 µg/mL); MIC (Escherichia coli; strain 26 (listed under Escherichia coli)): < 0.7 µM; MIC (Shigella flexneri): 0.1 µM (≈ 0.0361 µg/mL)
2 | CC(=O)N[C@H](Cc1ccccc1)C(=O)N[C@H](CCCCN)C(=O)N[C@H](CCCCN)C(=O)N[C@H](CC(C)C)C(=O)N[C@H](CCCCN)C(=O)N[C@H](CCCCN)C(=O)N[C@H](CC(C)C)C(=O)N[C@H](Cc1ccccc1)C(=O)N[C@H](CO)C(=O)N[C@H](CCCCN)C(=O)N[C@H](CC(C)C)C(=O)N[C@H](Cc1c[nH]c2ccccc12)C(=O)N[C@H](CC(N)=O)C(=O)N[C@H](Cc1c[nH]c2ccccc12)C(=O)N[C@H](CCCCN)C(N)=O [PL-18] (Ac-[dF][dK][dK][dL][dK][dK][dL][dF][dS][dK][dL][dW][dN][dW][dK]-NH2) | 0.3 µM (≈ 0.611 µg/mL) | 2.7 µM (≈ 5.5 µg/mL) | 0.04 µM (≈ 0.0814 µg/mL) | 1.3 µM (≈ 2.65 µg/mL) | 35.75 min | 33.37 min | 0.56 min | 35.75 min | 13.19 min | 13.45 min | 35.75 min | 33.37 min | MIC (Staphylococcus aureus): 0.7 µM (≈ 1.42 µg/mL); MIC [1]: 0.7 µM (≈ 1.42 µg/mL); Minimal inhibitory concentration (candida krusei): 4 µg/mL (≈ 1.97 µM)
3 | CC(=O)N[C@H](Cc1ccccc1)C(=O)N[C@H](CCCCN)C(=O)N[C@H](CCCCN)C(=O)N[C@H](Cc1ccccc1)C(=O)N[C@H](CCCCN)C(=O)N[C@H](CCCCN)C(=O)N[C@H](CC(C)C)C(=O)N[C@H](CC(C)C)C(=O)N[C@H](CO)C(=O)N[C@H](CCCCN)C(=O)N[C@H](CC(C)C)C(=O)N[C@H](Cc1c[nH]c2ccccc12)C(=O)N[C@H](CC(N)=O)C(=O)N[C@H](Cc1c[nH]c2ccccc12)C(=O)N[C@H](CCCCN)C(N)=O [PL-43] (Ac-[dF][dK][dK][dF][dK][dK][dL][dL][dS][dK][dL][dW][dN][dW][dK]-NH2; N-terminus and C-terminus assumed) |  |  |  |  | 41.64 min | 40.52 min | 1.65 min | 41.97 min | 19.08 min | 20.60 min | 41.64 min | 40.52 min | 
